Results published in PMC5218480 (PLoS ONE, 2017).

System: MV-4-11 cells
Test: Gene expression microarray analysis (Affymetrix PrimeView) and GSEA
Type: cell-based, human
Parameters: RFU PODN (11730768_x_at) / Fold change /veh PODN (11730768_x_at) / RFU LINC00158 (11744669_a_at) / Fold change /veh LINC00158 (11744669_a_at) / RFU DUSP10 (11751237_a_at) / Fold change /veh DUSP10 (11751237_a_at) / RFU ID3 (11757404_x_at) / Fold change /veh ID3 (11757404_x_at) / RFU PLEKHG5 (11737974_s_at) / Fold change /veh PLEKHG5 (11737974_s_at) / RFU LRRC4B (11730491_at) / Fold change /veh LRRC4B (11730491_at) / RFU GIMAP4 (11747438_a_at) / Fold change /veh GIMAP4 (11747438_a_at) / RFU KRT8 (11758183_x_at) / Fold change /veh KRT8 (11758183_x_at) / RFU CNN1 (11734310_a_at) / Fold change /veh CNN1 (11734310_a_at) / RFU VPS37D (11726825_at) / Fold change /veh VPS37D (11726825_at) / RFU C10orf10 (11716522_x_at) / Fold change /veh C10orf10 (11716522_x_at) / RFU KIR2DL2 /// KIR2DL4 /// KIR2DL5A /// KIR2DL5B /// KIR2DS1 /// KIR2DS2 /// KIR2DS3 /// KIR2DS4 /// KIR3DL3 /// KIR3DL3 /// KIR3DS1 (11738374_at) / Fold change /veh KIR2DL2 /// KIR2DL4 /// KIR2DL5A /// KIR2DL5B /// KIR2DS1 /// KIR2DS2 /// KIR2DS3 /// KIR2DS4 /// KIR3DL3 /// KIR3DL3 /// KIR3DS1 (11738374_at) / RFU C1QL1 (11718748_at) / Fold change /veh C1QL1 (11718748_at) / RFU TMPRSS4 (11747572_a_at) / Fold change /veh TMPRSS4 (11747572_a_at) / RFU HAMP (11756126_x_at) / Fold change /veh HAMP (11756126_x_at) / RFU RNFT2 (11725882_a_at) / Fold change /veh RNFT2 (11725882_a_at) / RFU NR4A2 (11747474_a_at) / Fold change /veh NR4A2 (11747474_a_at) / RFU ABCC12 (11746883_a_at) / Fold change /veh ABCC12 (11746883_a_at) / RFU TMEM136 (11760407_x_at) / Fold change /veh TMEM136 (11760407_x_at) / RFU CLDN22 /// WWC2 (11732394_at) / Fold change /veh CLDN22 /// WWC2 (11732394_at) / RFU HLA-DPB1 (11760878_x_at) / Fold change /veh HLA-DPB1 (11760878_x_at) / RFU SPINT1 (11716480_a_at) / Fold change /veh SPINT1 (11716480_a_at) / RFU GAP43 (11754022_s_at) / Fold change /veh GAP43 (11754022_s_at) / RFU A4GNT (11735810_at) / Fold change /veh A4GNT (11735810_at) / RFU PRB3 (11715151_x_at) / Fold change /veh PRB3 (11715151_x_at) / RFU TUBB4B (11761932_at) / Fold change /veh TUBB4B (11761932_at) / RFU CAPN14 (11732068_a_at) / Fold change /veh CAPN14 (11732068_a_at) / RFU TMCC2 (11721928_a_at) / Fold change /veh TMCC2 (11721928_a_at) / RFU IRGQ (11745062_a_at) / Fold change /veh IRGQ (11745062_a_at) / RFU FAM174B (11720279_a_at) / Fold change /veh FAM174B (11720279_a_at) / RFU TMPRSS4 (11748680_a_at) / Fold change /veh TMPRSS4 (11748680_a_at) / RFU FAM212B (11763350_a_at) / Fold change /veh FAM212B (11763350_a_at) / RFU PLEKHG5 (11743358_a_at) / Fold change /veh PLEKHG5 (11743358_a_at) / RFU ZSCAN30 (11745921_a_at) / Fold change /veh ZSCAN30 (11745921_a_at) / RFU CMKLR1 (11741424_a_at) / Fold change /veh CMKLR1 (11741424_a_at) / RFU LOC101060620 /// MAPK8IP1 (11723275_at) / Fold change /veh LOC101060620 /// MAPK8IP1 (11723275_at) / RFU SPTSSB (11747773_x_at) / Fold change /veh SPTSSB (11747773_x_at) / RFU PRSS12 (11739890_at) / Fold change /veh PRSS12 (11739890_at) / RFU BIN1 (11741810_x_at) / Fold change /veh BIN1 (11741810_x_at) / RFU WNT11 (11732464_a_at) / Fold change /veh WNT11 (11732464_a_at) / RFU C10orf10 (11716521_a_at) / Fold change /veh C10orf10 (11716521_a_at) / RFU C5orf56 (11738089_at) / Fold change /veh C5orf56 (11738089_at) / RFU CYB561 (11721691_x_at) / Fold change /veh CYB561 (11721691_x_at) / RFU ANKRD19P (11752326_a_at) / Fold change /veh ANKRD19P (11752326_a_at) / RFU OR2T12 /// OR2T33 /// OR2T8 (11738714_s_at) / Fold change /veh OR2T12 /// OR2T33 /// OR2T8 (11738714_s_at) / RFU VCAN (11748164_a_at) / Fold change /veh VCAN (11748164_a_at) / RFU JSRP1 (11732532_at) / Fold change /veh JSRP1 (11732532_at) / RFU KRTAP10-11 (11738290_x_at) / Fold change /veh KRTAP10-11 (11738290_x_at) / RFU MYO3A (11730013_a_at) / Fold change /veh MYO3A (11730013_a_at) / RFU EBF3 (11725865_a_at) / Fold change /veh EBF3 (11725865_a_at) / RFU CAMK2N1 (11719241_x_at) / Fold change /veh CAMK2N1 (11719241_x_at) / RFU C5orf56 (11738088_a_at) / Fold change /veh C5orf56 (11738088_a_at) / RFU OLFML3 (11715873_a_at) / Fold change /veh OLFML3 (11715873_a_at) / RFU LOC100653217 /// NTM (11731650_a_at) / Fold change /veh LOC100653217 /// NTM (11731650_a_at) / RFU MAPK11 (11762145_a_at) / Fold change /veh MAPK11 (11762145_a_at) / RFU FIZ1 (11724087_x_at) / Fold change /veh FIZ1 (11724087_x_at) / RFU OASL (11726364_x_at) / Fold change /veh OASL (11726364_x_at) / RFU SOX15 (11748057_x_at) / Fold change /veh SOX15 (11748057_x_at) / RFU CD79A (11719716_a_at) / Fold change /veh CD79A (11719716_a_at) / RFU HIST1H1D (11736915_at) / Fold change /veh HIST1H1D (11736915_at) / RFU CASKIN2 (11723855_a_at) / Fold change /veh CASKIN2 (11723855_a_at) / RFU LOC730098 (11760151_x_at) / Fold change /veh LOC730098 (11760151_x_at) / RFU OR4N2 (11742367_at) / Fold change /veh OR4N2 (11742367_at) / RFU PRRT2 (11749266_a_at) / Fold change /veh PRRT2 (11749266_a_at) / RFU SNX32 (11753110_a_at) / Fold change /veh SNX32 (11753110_a_at) / RFU CDHR5 (11726645_a_at) / Fold change /veh CDHR5 (11726645_a_at) / RFU RCAN1 (11760418_a_at) / Fold change /veh RCAN1 (11760418_a_at) / RFU FAM167A (11723789_a_at) / Fold change /veh FAM167A (11723789_a_at) / RFU FAM26E (11764081_at) / Fold change /veh FAM26E (11764081_at) / RFU ISYNA1 (11749810_s_at) / Fold change /veh ISYNA1 (11749810_s_at) / RFU ACY1 (11761880_at) / Fold change /veh ACY1 (11761880_at) / RFU 11764098_at / Fold change /veh 11764098_at / RFU SAMD14 (11745864_x_at) / Fold change /veh SAMD14 (11745864_x_at) / RFU NPB (11741838_a_at) / Fold change /veh NPB (11741838_a_at) / RFU TMPRSS6 (11731388_a_at) / Fold change /veh TMPRSS6 (11731388_a_at) / RFU KRTAP10-2 (11738614_at) / Fold change /veh KRTAP10-2 (11738614_at) / RFU ARHGAP8 /// PRR5-ARHGAP8 (11727945_x_at) / Fold change /veh ARHGAP8 /// PRR5-ARHGAP8 (11727945_x_at) / RFU KRTAP5-7 /// NADSYN1 (11734609_at) / Fold change /veh KRTAP5-7 /// NADSYN1 (11734609_at) / RFU RASL12 (11751679_a_at) / Fold change /veh RASL12 (11751679_a_at) / RFU CDKN2B (11736163_a_at) / Fold change /veh CDKN2B (11736163_a_at) / RFU PRF1 (11729649_at) / Fold change /veh PRF1 (11729649_at) / RFU, ZNF638 /// ZNF638-IT1 / Fold change vs veh, ZNF638 /// ZNF638-IT1 / RFU, PANK3 / Fold change vs veh, PANK3 / RFU, SH3YL1 / Fold change vs veh, SH3YL1 / RFU, ZEB2 / Fold change vs veh, ZEB2 / RFU, NRIP1 / Fold change vs veh, NRIP1 / RFU, PTTG1IP / Fold change vs veh, PTTG1IP / RFU, CAPN2 / Fold change vs veh, CAPN2 / RFU, MED14 / Fold change vs veh, MED14 / RFU, SNORA58 / Fold change vs veh, SNORA58 / RFU, C1orf63 / Fold change vs veh, C1orf63 / RFU, LRRFIP1 / Fold change vs veh, LRRFIP1 / RFU, NDUFAF7 / Fold change vs veh, NDUFAF7 / RFU, SLC12A2 / Fold change vs veh, SLC12A2 / RFU, IBTK / Fold change vs veh, IBTK / RFU, ESF1 / Fold change vs veh, ESF1 / Fold change vs veh, TMEM50B / RFU, TAOK1 / Fold change vs veh, TAOK1 / RFU, ACBD3 / Fold change vs veh, ACBD3 / RFU, TMA16 / Fold change vs veh, TMA16 / RFU, RWDD3 / Fold change vs veh, RWDD3 / RFU, BCAT1 / Fold change vs veh, BCAT1 / RFU, EDEM3 / Fold change vs veh, EDEM3 / RFU, TMEM33 / Fold change vs veh, TMEM33 / RFU, WDR75 / Fold change vs veh, WDR75 / RFU, AHCTF1 / Fold change vs veh, AHCTF1 / RFU, TFRC / Fold change vs veh, TFRC / RFU, ZDHHC17 / Fold change vs veh, ZDHHC17 / RFU, NOM1 / Fold change vs veh, NOM1 / RFU, ARL8B / Fold change vs veh, ARL8B / RFU, ZBTB11 / Fold change vs veh, ZBTB11 / RFU, TAMM41 / Fold change vs veh, TAMM41 / RFU, KIAA1704 /// LOC100996395 / Fold change vs veh, KIAA1704 /// LOC100996395 / RFU, ING1 / Fold change vs veh, ING1 / RFU, TRMT61B / Fold change vs veh, TRMT61B / RFU, FUBP3 / Fold change vs veh, FUBP3 / RFU, TP53 / Fold change vs veh, TP53 / RFU, TNKS2 / Fold change vs veh, TNKS2 / RFU, ZFP14 / Fold change vs veh, ZFP14 / RFU, ACTR2 / Fold change vs veh, ACTR2 / RFU, PPP3R1 / Fold change vs veh, PPP3R1 / RFU, PIK3R1 / Fold change vs veh, PIK3R1 / RFU, HNRNPA1 / Fold change vs veh, HNRNPA1 / RFU, RNF170 / Fold change vs veh, RNF170 / RFU, ZNF28 / Fold change vs veh, ZNF28 / RFU, RNGTT / Fold change vs veh, RNGTT / RFU, OGT / Fold change vs veh, OGT / RFU, BRD1 / Fold change vs veh, BRD1 / RFU, MARS / Fold change vs veh, MARS / RFU, ZNF655 / Fold change vs veh, ZNF655 / RFU, FAHD1 / Fold change vs veh, FAHD1 / RFU, BDP1 / Fold change vs veh, BDP1 / RFU, LRRCC1 / Fold change vs veh, LRRCC1 / RFU, ARID1A / Fold change vs veh, ARID1A / RFU, ZNF146 / Fold change vs veh, ZNF146 / RFU, ZNF330 / Fold change vs veh, ZNF330 / RFU, GPN3 / Fold change vs veh, GPN3 / RFU, C9orf123 / Fold change vs veh, C9orf123 / RFU, N4BP2L2 / Fold change vs veh, N4BP2L2 / RFU, ARFIP1 / Fold change vs veh, ARFIP1 / RFU, FAM179B / Fold change vs veh, FAM179B / RFU, BCL10 / Fold change vs veh, BCL10 / RFU, UHRF1BP1L / Fold change vs veh, UHRF1BP1L / RFU, BET1 / Fold change vs veh, BET1 / RFU, CNOT2 / Fold change vs veh, CNOT2 / RFU, ZNF268 / Fold change vs veh, ZNF268 / Fold change vs veh, ZNF507 / RFU, DGCR2 / Fold change vs veh, DGCR2 / RFU, WDSUB1 / Fold change vs veh, WDSUB1 / Fold change vs veh, HSP90B1 /// MIR3652 / RFU, ADSS / Fold change vs veh, ADSS / RFU, GK / Fold change vs veh, GK / RFU, ZNF148 / Fold change vs veh, ZNF148 / RFU, TAF9 / Fold change vs veh, TAF9 / RFU, SLC1A5 / Fold change vs veh, SLC1A5 / RFU, SLMO2 / Fold change vs veh, SLMO2 / RFU, ABCC4 / Fold change vs veh, ABCC4 / RFU, LOC101060439 /// RAP1B / Fold change vs veh, LOC101060439 /// RAP1B / RFU, RFX7 / Fold change vs veh, RFX7 / RFU, GTPBP10 / Fold change vs veh, GTPBP10 / RFU, CNEP1R1 / Fold change vs veh, CNEP1R1 / RFU, BIVM-ERCC5 /// ERCC5 / Fold change vs veh, BIVM-ERCC5 /// ERCC5 / RFU, ILF3 / Fold change vs veh, ILF3 / RFU 11762660_at / Fold change /veh 11762660_at / RFU VCAN (11757783_s_at) / Fold change /veh VCAN (11757783_s_at) / RFU DDX43 (11728927_at) / Fold change /veh DDX43 (11728927_at) / RFU KRT8 (11758188_x_at) / Fold change /veh KRT8 (11758188_x_at) / RFU NKD1 (11759106_at) / Fold change /veh NKD1 (11759106_at) / RFU SRD5A1 (11742802_a_at) / Fold change /veh SRD5A1 (11742802_a_at) / RFU TPSAB1 /// TPSB2 (11721975_s_at) / Fold change /veh TPSAB1 /// TPSB2 (11721975_s_at) / RFU GSTM3 (11746129_a_at) / Fold change /veh GSTM3 (11746129_a_at) / RFU IL23R (11737362_x_at) / Fold change /veh IL23R (11737362_x_at) / RFU TMEM51 (11727254_a_at) / Fold change /veh TMEM51 (11727254_a_at) / RFU PIWIL2 (11732686_x_at) / Fold change /veh PIWIL2 (11732686_x_at) / RFU ORM1 (11744905_x_at) / Fold change /veh ORM1 (11744905_x_at) / RFU CCDC152 (11743942_at) / Fold change /veh CCDC152 (11743942_at) / RFU ECM1 (11717891_a_at) / Fold change /veh ECM1 (11717891_a_at) / RFU IL23R (11748794_a_at) / Fold change /veh IL23R (11748794_a_at) / RFU TNFAIP8L3 (11732012_x_at) / Fold change /veh TNFAIP8L3 (11732012_x_at) / RFU MBOAT4 (11741988_at) / Fold change /veh MBOAT4 (11741988_at) / RFU 11764193_at / Fold change /veh 11764193_at / RFU TMEM53 (11763286_at) / Fold change /veh TMEM53 (11763286_at) / RFU MAGEB2 (11727129_at) / Fold change /veh MAGEB2 (11727129_at) / RFU TMEM200A (11744735_a_at) / Fold change /veh TMEM200A (11744735_a_at) / RFU CCDC152 (11751479_a_at) / Fold change /veh CCDC152 (11751479_a_at) / RFU FAM211A (11726209_a_at) / Fold change /veh FAM211A (11726209_a_at) / RFU RGS16 (11746705_a_at) / Fold change /veh RGS16 (11746705_a_at) / RFU VCAN (11755009_s_at) / Fold change /veh VCAN (11755009_s_at) / RFU RHOB (11743442_s_at) / Fold change /veh RHOB (11743442_s_at) / RFU RGS16 (11720943_a_at) / Fold change /veh RGS16 (11720943_a_at) / RFU RGS16 (11720944_at) / Fold change /veh RGS16 (11720944_at) / RFU, VPS4B / Fold change vs veh, VPS4B / RFU, CREB1 / Fold change vs veh, CREB1 / RFU, DNAJC13 / Fold change vs veh, DNAJC13 / RFU, GNAQ / Fold change vs veh, GNAQ / RFU, CDK5R1 / Fold change vs veh, CDK5R1 / RFU, ZRANB3 / Fold change vs veh, ZRANB3 / RFU, CUL4A / Fold change vs veh, CUL4A / RFU, CCNY / Fold change vs veh, CCNY / RFU, UFL1 / Fold change vs veh, UFL1 / RFU, COG3 / Fold change vs veh, COG3 / RFU, DIAPH2 / Fold change vs veh, DIAPH2 / RFU, SKA2 / Fold change vs veh, SKA2 / RFU, AFF3 / Fold change vs veh, AFF3 / RFU, LMF1 / Fold change vs veh, LMF1 / RFU, IPO11 / Fold change vs veh, IPO11 / RFU, DFFB / Fold change vs veh, DFFB / RFU, FOXP1 / Fold change vs veh, FOXP1 / RFU, CARD8 / Fold change vs veh, CARD8 / RFU, STRN3 / Fold change vs veh, STRN3 / RFU, ADK / Fold change vs veh, ADK / RFU, RASSF2 / Fold change vs veh, RASSF2 / RFU, WIPF1 / Fold change vs veh, WIPF1 / RFU, LARP1B / Fold change vs veh, LARP1B / RFU, RASA1 / Fold change vs veh, RASA1 / RFU, RB1 / Fold change vs veh, RB1 / RFU, PPFIA1 / Fold change vs veh, PPFIA1 / RFU, MAT2A / Fold change vs veh, MAT2A / RFU, CCT5 / Fold change vs veh, CCT5 / RFU, WDR92 / Fold change vs veh, WDR92 / RFU, CUX1 / Fold change vs veh, CUX1 / RFU, TTC7A / Fold change vs veh, TTC7A / RFU, TMEM135 / Fold change vs veh, TMEM135 / RFU, DEPTOR / Fold change vs veh, DEPTOR / RFU, CPM / Fold change vs veh, CPM / RFU, DNAJB6 / Fold change vs veh, DNAJB6 / RFU, CACNA2D3 / Fold change vs veh, CACNA2D3 / RFU, DTX4 / Fold change vs veh, DTX4 / RFU, TFCP2 / Fold change vs veh, TFCP2 / RFU, GMCL1 /// GMCL1P1 / Fold change vs veh, GMCL1 /// GMCL1P1 / RFU, AEBP2 / Fold change vs veh, AEBP2 / RFU, SNHG1 /// SNORD22 /// SNORD25 /// SNORD26 /// SNORD27 /// SNORD28 /// SNORD29 /// SNORD31 / Fold change vs veh, SNHG1 /// SNORD22 /// SNORD25 /// SNORD26 /// SNORD27 /// SNORD28 /// SNORD29 /// SNORD31 / Fold change (Aza/veh), C12orf56 (ProbeSet 11735607_a_at) / Fold change (ACY-1035/veh), C12orf56 (ProbeSet 11735607_a_at) / Fold change (Aza/veh), FGFR1OP (ProbeSet 11751329_s_at) / Fold change (ACY-1035/veh), FGFR1OP (ProbeSet 11751329_s_at) / Fold change (Aza/veh), VPS36 (ProbeSet 11739960_a_at) / Fold change (ACY-1035/veh), VPS36 (ProbeSet 11739960_a_at) / RFU SYPL1 (11715823_x_at) / Fold change /veh SYPL1 (11715823_x_at) / RFU IGFBP7 (11715501_s_at) / Fold change /veh IGFBP7 (11715501_s_at) / RFU REEP3 (11722064_at) / Fold change /veh REEP3 (11722064_at) / RFU IGLL1 (11728026_x_at) / Fold change /veh IGLL1 (11728026_x_at): dose or concentration left out as unconfirmed
Details: ProbeSet 11730501_a_at; LIST D

Nc1ncn([C@@H]2O[C@H](CO)[C@@H](O)[C@H]2O)c(=O)n1 [azacitidine]
RFU, CACNA2D3: 122.12 RFU
